Results from US6602888B2, “Use of α1C specific compounds to treat benign prostatic hyperplasia” (Synaptic Pharmaceutical Corporation, priority 1992, dated 2003).
Counter-ions that a name gives are not always drawn. Like-named read-outs stand apart in the source and are kept apart here. One block for each compound: values may come before it.

What was measured:
[1] = system: human prostate tissue; assay: Antagonism of phenylephrine-induced contraction of human prostatic tissue; conditions: pA2, phenylephrine-induced contraction, dose-ratio method
Experimental: An index of this efficacy can be obtained by determining the potency of α1 antagonists to antagonize the contraction of human prostatic tissue induced by an α1 agonist “in vitro”.
Prostatic adenomas were obtained at the time of surgery from patients with symptomatic BPH. […] Isometric tension was measured with a Grass Instrument FT03 force transducer interfaced with a computer. Tissue strips were contracted with varying concentrations of phenylephrine after incubating for 20 minutes in the absence and presence of at least three different concentrations of antagonist. Dose-response curves for phenylephrine were constructed, and the antagonist potency (pA2) was estimated by the dose-ratio method.

[2] = target: T1, human histamine H2 receptor (Homo sapiens, UniProt P25021); assay: [3H]tiotidine binding, histamine H2 receptor; conditions: Table 2, cloned human receptor; read-out: Histamine H2 (pK1) (converted)
T1 construct: host or cells: COS-7, transient, DEAE-dextran
T1 sequence (P25021 whole entry): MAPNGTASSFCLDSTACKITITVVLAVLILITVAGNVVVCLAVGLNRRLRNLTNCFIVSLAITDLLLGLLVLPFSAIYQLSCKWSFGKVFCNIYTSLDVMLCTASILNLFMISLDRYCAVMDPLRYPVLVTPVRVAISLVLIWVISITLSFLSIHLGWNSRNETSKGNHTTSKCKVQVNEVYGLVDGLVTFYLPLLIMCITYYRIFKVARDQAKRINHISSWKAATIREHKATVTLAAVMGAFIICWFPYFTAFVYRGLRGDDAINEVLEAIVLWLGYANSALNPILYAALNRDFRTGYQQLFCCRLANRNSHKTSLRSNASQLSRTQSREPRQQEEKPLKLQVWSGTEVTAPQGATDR
From the text: The coding sequence of the human H2 receptor was obtained from a human placenta genomic library, and cloned into the cloning site of PCEXV-3 eukaryotic expression vector. The plasmid DNA for the H2 receptor is designated pcEXV-H2, and was deposited on Nov. […] This construct was transfected into COS-7 cells by the DEAE-dextran method.

[3] = target: T2, human D2 receptor (Homo sapiens, UniProt P14416); assay: [3H]spiperone binding, dopamine D2 receptor
T2 construct: host or cells: COS-7, transient, DEAE-dextran
T2 sequence (P14416 whole entry): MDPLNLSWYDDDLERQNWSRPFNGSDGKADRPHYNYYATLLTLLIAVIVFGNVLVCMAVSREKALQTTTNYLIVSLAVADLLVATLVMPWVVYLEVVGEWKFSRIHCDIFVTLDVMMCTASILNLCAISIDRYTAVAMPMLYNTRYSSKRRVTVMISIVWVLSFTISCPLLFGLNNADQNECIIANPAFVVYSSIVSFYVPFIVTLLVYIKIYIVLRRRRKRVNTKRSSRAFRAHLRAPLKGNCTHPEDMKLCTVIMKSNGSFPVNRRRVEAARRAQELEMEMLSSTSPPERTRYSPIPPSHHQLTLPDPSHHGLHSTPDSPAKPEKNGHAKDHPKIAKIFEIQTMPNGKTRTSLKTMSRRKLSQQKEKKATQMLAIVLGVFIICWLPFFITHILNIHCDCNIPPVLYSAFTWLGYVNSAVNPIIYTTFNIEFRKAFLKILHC
Experimental: The potency of α1 antagonists at the D2 receptor was determined using membrane preparations from COS-7 cells transfected with the gene encoding the human D2 receptor. The coding region for the human D2 receptor was obtained from a human striatum cDNA library, and cloned into the cloning site of PCDNA 1 eukariotic expression vector. The plasmid DNA for the D2 receptor is designated pcEXV-D2, and was deposited on Nov. […] This construct was transfected into COS-7 cells by the DEAE-dextran method. […] The cell lysates were incubated with [3H]spiperone (2 nM), using 10 μM (+)Butaclamol to determine nonspecific binding.

[4] = system: 5-α-reductase; conditions: BPH patients; cited from earlier work
[5] = target: T3, human histamine H1 receptor (Homo sapiens, UniProt P35367); assay: [3H]mepyramine binding, histamine H1 receptor
T3 construct: host or cells: COS-7, transient, DEAE-dextran
T3 sequence (P35367 whole entry): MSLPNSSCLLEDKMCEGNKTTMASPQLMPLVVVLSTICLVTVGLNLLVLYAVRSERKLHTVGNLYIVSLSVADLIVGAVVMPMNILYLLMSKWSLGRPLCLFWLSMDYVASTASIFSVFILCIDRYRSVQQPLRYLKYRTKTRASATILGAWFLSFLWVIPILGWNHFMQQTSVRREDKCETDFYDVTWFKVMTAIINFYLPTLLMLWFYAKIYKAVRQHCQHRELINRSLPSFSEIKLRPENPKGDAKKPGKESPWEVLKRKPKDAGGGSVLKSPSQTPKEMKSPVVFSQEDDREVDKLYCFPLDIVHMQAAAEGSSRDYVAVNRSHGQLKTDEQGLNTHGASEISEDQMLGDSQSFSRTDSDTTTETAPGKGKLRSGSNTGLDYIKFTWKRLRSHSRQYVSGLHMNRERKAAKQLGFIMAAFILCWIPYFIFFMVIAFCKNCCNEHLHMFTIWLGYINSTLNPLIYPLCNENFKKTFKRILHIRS
From the text: The coding sequence of the human histamine H1 receptor, homologous to the bovine H1 receptor, was obtained from a human hippocampal cDNA library, and was cloned into the eukaryotic expression vector pCEXV-3. The plasmid DNA for the H1 receptor is designated pcEXV-H1, and was deposited on Nov. […] This construct was transfected into COS-7 cells by the DEAE-dextran method.

[6] = target: T4, human 5HT1F receptor (Homo sapiens, UniProt P30939); assay: [3H]serotonin competition binding, 5HT1F receptor
T4 construct: host or cells: LM(tk-) clonal cell line L-5-HT1F
T4 sequence (P30939 1-366): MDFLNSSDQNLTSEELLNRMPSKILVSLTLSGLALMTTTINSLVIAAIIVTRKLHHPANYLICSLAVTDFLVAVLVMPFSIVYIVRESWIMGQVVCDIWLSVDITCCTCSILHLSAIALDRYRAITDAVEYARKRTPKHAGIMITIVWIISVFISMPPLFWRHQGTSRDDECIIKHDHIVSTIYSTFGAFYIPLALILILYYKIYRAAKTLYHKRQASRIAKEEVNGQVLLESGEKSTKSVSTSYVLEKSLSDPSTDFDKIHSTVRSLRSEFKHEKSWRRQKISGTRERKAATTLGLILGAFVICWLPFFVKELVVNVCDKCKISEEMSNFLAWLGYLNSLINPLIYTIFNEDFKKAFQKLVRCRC
Experimental: (§1) 5HT1Dα, 5HT1Dβ, 5HT1E, 5HT1F Receptors: The cell lysates of LM(tk−) clonal cell line stably transfected with the genes encoding each of these 5HT receptor-subtypes were prepared as described above. The cell line for the 5HT1Dα receptor, designated as Ltk-8-30-84, was deposited on Apr. […] The cell for the 5HT1Dβ receptor, designated as Ltk-11, was deposited on Apr. […] The cell line for the 5HT1E receptor, designated 5 HT1E-7, was deposited on Nov. […] The cell line for the 5HT1F receptor, designated L-5-HT1F, was deposited on Dec. […] These preparations were suspended in 50 mM Tris-HCl buffer (pH 7.4 at 37° C.) containing 10 mM MgCl2, 0.2 mM EDTA, 10 μM pargyline, and 0.1% ascorbate.

[7] = target: T5, human 5HT2 receptor (Homo sapiens, UniProt P28223); assay: [3H]ketanserin competition binding, 5HT2 receptor
T5 construct: host or cells: COS-7 (DEAE-dextran); the same paragraph also names a deposited line L-NGC-5HT2
T5 sequence (P28223 whole entry): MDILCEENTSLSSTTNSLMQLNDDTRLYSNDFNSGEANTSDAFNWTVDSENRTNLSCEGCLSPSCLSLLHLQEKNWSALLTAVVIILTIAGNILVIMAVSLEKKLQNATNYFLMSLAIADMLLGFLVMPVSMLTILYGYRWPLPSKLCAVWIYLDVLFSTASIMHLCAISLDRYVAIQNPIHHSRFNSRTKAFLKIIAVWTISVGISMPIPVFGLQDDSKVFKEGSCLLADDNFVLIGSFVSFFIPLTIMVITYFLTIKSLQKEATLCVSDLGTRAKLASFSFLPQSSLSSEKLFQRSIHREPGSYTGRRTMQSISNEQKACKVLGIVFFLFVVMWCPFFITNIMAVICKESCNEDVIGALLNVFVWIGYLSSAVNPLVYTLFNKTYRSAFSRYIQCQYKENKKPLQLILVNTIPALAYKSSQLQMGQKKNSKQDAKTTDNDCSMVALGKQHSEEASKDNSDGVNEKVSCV
Experimental: The coding sequence of the human 5HT2 receptor was obtained from a human brain cortex cDNA library, and cloned into the cloning site of pCEXV-3 eukaryotic expression vector. This construct was transfected into COS-7 cells by the DEAE-dextran method. […] Nonspecific binding was defined by the addition of 10 μM mianserin.

[8] = target: T6, human 5HT1Dα receptor (Homo sapiens, UniProt P28221); assay: [3H]serotonin competition binding, 5HT1Dα receptor
T6 construct: host or cells: LM(tk-) clonal cell line Ltk-8-30-84
T6 sequence (P28221 whole entry): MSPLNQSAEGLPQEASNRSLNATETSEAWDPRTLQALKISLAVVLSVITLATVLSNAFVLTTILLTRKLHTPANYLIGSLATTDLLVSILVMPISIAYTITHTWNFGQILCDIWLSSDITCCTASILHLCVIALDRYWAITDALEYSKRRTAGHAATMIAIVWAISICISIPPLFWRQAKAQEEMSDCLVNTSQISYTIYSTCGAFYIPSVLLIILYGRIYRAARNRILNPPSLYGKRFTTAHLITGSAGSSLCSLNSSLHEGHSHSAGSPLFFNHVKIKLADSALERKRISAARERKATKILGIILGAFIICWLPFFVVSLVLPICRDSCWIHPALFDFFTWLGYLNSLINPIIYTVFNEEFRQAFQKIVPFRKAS
Experimental: as §1

[9] = target: T7, human 5HT1Dβ receptor (Homo sapiens, UniProt P28222); assay: [3H]serotonin competition binding, 5HT1Dβ receptor
T7 construct: host or cells: LM(tk-) clonal cell line Ltk-11
T7 sequence (P28222 whole entry): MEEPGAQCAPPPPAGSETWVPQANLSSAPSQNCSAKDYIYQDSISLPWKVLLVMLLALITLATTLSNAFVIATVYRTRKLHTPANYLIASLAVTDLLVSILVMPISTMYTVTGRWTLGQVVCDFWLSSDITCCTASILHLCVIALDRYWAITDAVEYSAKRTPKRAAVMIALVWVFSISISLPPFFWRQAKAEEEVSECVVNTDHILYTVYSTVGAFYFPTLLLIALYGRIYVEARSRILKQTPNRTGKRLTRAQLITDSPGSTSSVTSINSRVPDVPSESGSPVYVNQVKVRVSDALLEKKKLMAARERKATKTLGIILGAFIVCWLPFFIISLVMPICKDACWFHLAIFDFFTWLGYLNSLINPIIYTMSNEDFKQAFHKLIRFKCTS
Experimental: as §1

[10] = target: T8, human 5HT1E receptor (Homo sapiens, UniProt P28566); assay: [3H]serotonin competition binding, 5HT1E receptor
T8 construct: host or cells: LM(tk-) clonal cell line 5HT1E-7
T8 sequence (P28566 whole entry): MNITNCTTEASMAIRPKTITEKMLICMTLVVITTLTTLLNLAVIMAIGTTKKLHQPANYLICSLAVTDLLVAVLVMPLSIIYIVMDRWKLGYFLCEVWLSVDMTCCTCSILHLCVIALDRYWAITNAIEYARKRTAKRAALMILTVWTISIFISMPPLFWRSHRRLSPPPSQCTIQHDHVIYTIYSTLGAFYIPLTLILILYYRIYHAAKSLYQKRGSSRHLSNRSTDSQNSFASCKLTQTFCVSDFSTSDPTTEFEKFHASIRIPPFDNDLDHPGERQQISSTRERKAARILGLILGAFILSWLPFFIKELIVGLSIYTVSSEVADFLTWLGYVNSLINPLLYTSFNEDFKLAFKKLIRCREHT
Experimental: as §1

[11] = system: Sprague-Dawley normotensive rats; assay: Rat orthostatic hypotension model; assay type: in vivo; conditions: for BP fall / orthostatic fall in BP: i.v.; for orthostatic fall in BP: second tilt
Experimental: Adult male Sprague-Dawley normotensive rats were anesthetized with sodium pentobarbital (45 mg/kg, i.v.). The femoral vein and artery of the right hindlimb were cannulated for drug administration and blood pressure monitoring, respectively. Heart rate was determined by a cardiotachometer triggered by the blood pressure pulse. The rats were secured in the supine position to a board that could be tilted 90 degrees. When blood pressure and heart rate had stabilized, the rats were subjected to a 90 degree vertical (head up) tilt for 60 seconds. Changes in blood pressure and heart rate from pre-tilt levels were monitored continuously. The rats were returned to the supine position and blood pressure and heart rate were allowed to stabilize. […] When blood pressure had stabilized, the rats were subjected to a second tilt and blood pressure and heart rate were recorded as described above. […] Data from the second tilt are used in statistical analysis.

[12] = target: T9, calcium channels (Rattus norvegicus, UniProt P22002); assay: [3H]nitrendipine competition binding, calcium channels, rat cardiac muscle membranes; conditions: Table 2, rat cardiac muscle membranes; read-out: Calcium Channel (pK1) (converted)
T9 construct: from tissue; host or cells: rat cardiac muscle membranes
Experimental: Briefly, the tissue was minced and homogenized in 50 mM Tris-HCl (pH 7.4) containing 0.1 mM phenylmethylsulfonyl fluoride. The homogenates were centrifuged at 1000 g for 15 minutes, the resulting supernatant was centrifuged at 45,000 g for 15 minutes. The 45,000 g pellet was suspended in buffer and centrifuged a second time.

Compound: COc1cc2nc(N3CCN(C(=O)C4CCCO4)CC3)nc(N)c2cc1OC (stereo not drawn) [Terazosin, 2 [4-(Tetrahydro-2-furoyl)piperazinyl]-4-amino-6,7-dimethoxyquinazoline hydrochloride, reference compound]
Human Prostate (pA) [1]: 7.30
Ki [2]: 9120 nM
Ki ([3]; Table 2, cloned human receptor, read-out: Dopamine D2 (pK1)): > 10000 nM

Compound: CC(C)(C)NC(=O)[C@H]1CC[C@H]2[C@@H]3CC[C@H]4NC(=O)C=C[C@]4(C)[C@H]3CC[C@]12C [Proscar]
patients in whom effective [4]: 30%
period required to show results [4]: up to 6 months

Compound: COC(=O)C1=C(C)NC(C)=C(C(=O)NCCCN2CCC(c3ccccc3)(c3ccccc3)CC2)C1c1ccc([N+](=O)[O-])cc1.Cl.O (stereo not drawn) [Compound 2, 2,6-Dimethyl-4-(4-nitrophenyl)-1,4-dihydropyridine-3,5-dicarboxylic acid N-[3-(4,4-diphenylpiperidin-1-yl)-propyl]amide methyl ester hydrochloride hydrate]
Ki [5]: 69.2 nM
Ki [6]: > 10000 nM
Ki [7]: > 1000 nM
Ki [8]: > 100 nM
Human Prostate (pA) [1]: 8.94
Ki [9]: > 1000 nM
Ki [2]: 33.1 nM
Ki [3]: > 100 nM
Ki [10]: > 10000 nM

BP fall ([11]; Dose 1, 10 ug/kg): +
orthostatic fall in BP ([11]; Dose 1, 10 ug/kg): +
BP fall ([11]; Dose 2, 100 ug/kg): ++
orthostatic fall in BP ([11]; Dose 2, 100 ug/kg): ++ or +++
BP fall ([11]; Dose 3, 1000 ug/kg): +++
orthostatic fall in BP ([11]; Dose 3, 1000 ug/kg): ++ or +++
Ki [12]: 26900 nM
Compound: COc1cc2nc(N3CCN(C(=O)c4ccco4)CC3)nc(N)c2cc1OC [Prazosin]
Human Prostate (pA) [1]: 9.08
orthostasis (Table 3) ([11]; doses 10, 100, 1000 ug/kg): consistently cause orthostasis at the lowest dose

Compound: O=C(CCCN1CCC(NC(=O)c2ccccc2)CC1)c1ccc(Cl)cc1 (as salt: HCl) [Example 4, 1-[3-(4-chlorobenzoyl)propyl]-4-benzamidopiperidine]
melting point: 243 to 244 °C
